Measurements: patent US20240343727A1, “PYRIDAZINONE OR PYRIDINONE COMPOUNDS, PREPARATION METHODS AND USES THEREOF” (InventisBio Co., Ltd., priority 2021, published 2024)

target: T1, PARP7 (Homo sapiens, UniProt Q7Z3E1); experiment: PARP7 TR-FRET assay (binding, displacement of biotinylated Probe A); settings: 6 nM PARP7, 2 nM Probe A, 25° C., 30 min
T1 sequence (Q7Z3E1 1-657): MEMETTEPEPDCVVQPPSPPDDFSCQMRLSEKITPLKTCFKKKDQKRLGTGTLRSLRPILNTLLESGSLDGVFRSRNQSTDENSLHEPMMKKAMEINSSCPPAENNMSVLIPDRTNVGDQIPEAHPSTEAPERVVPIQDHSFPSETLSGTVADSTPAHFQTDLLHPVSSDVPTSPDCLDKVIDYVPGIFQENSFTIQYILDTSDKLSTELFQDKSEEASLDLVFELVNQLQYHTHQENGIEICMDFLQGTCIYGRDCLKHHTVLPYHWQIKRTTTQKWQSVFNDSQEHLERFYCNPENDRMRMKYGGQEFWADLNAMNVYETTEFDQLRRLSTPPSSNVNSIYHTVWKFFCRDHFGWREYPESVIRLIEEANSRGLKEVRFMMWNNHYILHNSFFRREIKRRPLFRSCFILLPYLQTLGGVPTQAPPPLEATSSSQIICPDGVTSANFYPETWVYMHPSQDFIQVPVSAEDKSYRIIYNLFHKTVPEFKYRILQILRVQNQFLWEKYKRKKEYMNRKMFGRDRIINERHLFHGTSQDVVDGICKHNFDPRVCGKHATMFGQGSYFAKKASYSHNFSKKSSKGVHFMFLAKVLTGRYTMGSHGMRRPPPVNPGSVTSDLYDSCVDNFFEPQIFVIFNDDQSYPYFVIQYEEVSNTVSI
Method in brief: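 Compound displacement of biotinylated Probe A (2 nM) from PARP7 (6 nM) measured by TR-FRET in HEPES pH 8.0 buffer, 30 min at 25° C. Detection used ULight-anti 6xHis (4 nM) plus Eu-streptavidin (0.25 nM) for 30 min, reading the 665/615 nm ratio. % inhibition was taken against DMSO and no-enzyme wells, and IC50 from a Hill fit.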

IC50 [nM] | Compound
< 100 | COC[C@H]1C[C@@H]1Nc1c(Oc2cccc(C(=O)N3CCN(c4ncc(C(F)(F)F)cn4)CC3)c2)n[nH]c(=O)c1C(F)(F)F [Compound 198]
< 100 | C#Cc1cnc(N2CCN(C(=O)CC3CN(c4cc(C(F)(F)F)c(=O)[nH]n4)c4cc(C#N)ccc4O3)CC2)nc1 (single isomer, unassigned) [Compound 235]
< 100 | O=C(CC1CN(c2n[nH]c(=O)c3ccc(N4CC(F)(F)C4)cc23)CCO1)N1CCN(c2ncc(C(F)(F)F)cn2)CC1 (single isomer, unassigned) [Compound 220]
< 100 | CC(C)C1CN(c2c(Oc3cccc(C(=O)N4CCN(c5ncc(C(F)(F)F)cn5)CC4)c3)n[nH]c(=O)c2C(F)(F)F)C1 [Compound 183]
< 100 | O=C(CC1CN(c2cc(C(F)(F)F)c(=O)[nH]n2)c2ccccc2O1)N1CCN(c2ccc(C(F)(F)F)cn2)CC1 (single isomer, unassigned) [Compound 246]
< 100 | O=C(COC1CCOc2c1n[nH]c(=O)c2C1CC1)N1CCN(c2ncc(C(F)(F)F)cn2)CC1 (single isomer, unassigned) [Compound 128]
< 100 | CN1CC2(C1)CN(c1c(Oc3cccc(C(=O)N4CCN(c5ncc(C(F)(F)F)cn5)CC4)c3)n[nH]c(=O)c1C(F)(F)F)C2 [Compound 69]
< 100 | C#Cc1cnc(N2CCN(C(=O)c3cc(Oc4n[nH]c(=O)c(C(F)(F)F)c4N4CC5(C4)CC(F)(F)C5)ccn3)CC2)nc1 [Compound 317]
100 to 1000 | O=C(c1cccc(Oc2n[nH]c(=O)c(C(F)(F)F)c2C#CC2CC2)c1)N1CCN(c2ncc(C(F)(F)F)cn2)CC1 [Compound 139]
> 1000 | Cc1c(Oc2cccc(C(=O)N3CC[C@@H](Oc4ncc(C(F)(F)F)cn4)C3)c2)n[nH]c(=O)c1C(F)(F)F [Compound 29]
> 1000 | O=C(CC1CN(c2cc(C(F)(F)F)c(=O)[nH]n2)c2ccccc2O1)N1CCN(c2nnc(C(F)(F)F)s2)CC1 (single isomer, unassigned) [Compound 288]
< 100 | Cc1cc(Oc2n[nH]c(=O)c(C(F)(F)F)c2C)cc(C(=O)N2CCN(c3ncc(C(F)(F)F)cn3)CC2)c1 [Compound 23]
< 100 | C[C@@H]1CN(C(=O)CC2CN(c3cc(C(F)(F)F)c(=O)[nH]n3)c3cc(C#N)ccc3O2)CCN1c1ncc(C(F)(F)F)cn1 (single isomer, unassigned) [Compound 152]
100 to 1000 | O=C(c1cccc(Oc2n[nH]c(=O)c(C(F)(F)F)c2N2CC3(CCC3)C2)c1)N1CCn2c(nnc2C(F)(F)F)C1 [Compound 178]
< 100 | CC1(C)CN(c2c(Oc3cccc(C(=O)N4CCN(c5ncc(C(F)(F)F)cn5)CC4)c3)n[nH]c(=O)c2C(F)(F)F)C1 [Compound 174]
100 to 1000 | N#Cc1ccc2c(=O)[nH]nc(N3CCOC(CC(=O)N4CCN(c5ncc(C(F)(F)F)cn5)CC4)C3)c2c1 (single isomer, unassigned) [Compound 244]
< 100 | O=C(c1cccc(Oc2n[nH]c(=O)c(C(F)(F)F)c2N2CC(C(F)F)C2)c1)N1CCN(c2ncc(C(F)(F)F)cn2)CC1 [Compound 72]
< 100 | O=C(c1cccc(Oc2n[nH]c(=O)c(C(F)(F)F)c2N2CC3(CCO3)C2)c1)N1CCN(c2ncc(C(F)(F)F)cn2)C2(CC2)C1 [Compound 253]
< 100 | C[C@H]1CN(c2ncc(C(F)(F)F)cn2)CCN1C(=O)c1cccc(Oc2n[nH]c(=O)c(C(F)(F)F)c2N2CC3(CCO3)C2)c1 [Compound 255]
> 1000 | Cc1c(Oc2cccc(C(=O)N3CC[C@H](Oc4ncc(C(F)(F)F)cn4)C3)c2)n[nH]c(=O)c1C(F)(F)F [Compound 28]
100 to 1000 | C#Cc1ccc2c(N3CCOC(CC(=O)N4CCN(c5ncc(C(F)(F)F)cn5)CC4)C3)n[nH]c(=O)c2c1 (single isomer, unassigned) [Compound 196]
> 1000 | N#CC1(c2ccnc(N3CCN(C(=O)CC4CN(c5cc(C(F)(F)F)c(=O)[nH]n5)c5cc(F)ccc5O4)CC3)n2)CC1 (single isomer, unassigned) [Compound 344]
< 100 | COC1CN(c2c(Oc3ccnc(C(=O)N4CCN(c5ncc(C(F)(F)F)cn5)CC4)c3)n[nH]c(=O)c2C(F)(F)F)C1 [Compound 315]
100 to 1000 | N#Cc1ccc(N2CCN(C(=O)CC3CN(c4cc(C(F)(F)F)c(=O)[nH]n4)c4cc(F)ccc4O3)CC2)nc1 (single isomer, unassigned) [Compound 269]
< 100 | N#Cc1cnc(N2CCN(C(=O)CC3CN(c4cc(C(F)(F)F)c(=O)[nH]n4)c4cc(C#N)ccc4O3)CC2)nc1 (single isomer, unassigned) [Compound 218]

IC50 [nM] | Compound
< 100 | O=C(c1cccc(Oc2n[nH]c(=O)c(C(F)(F)F)c2N2CC3(CCC3)C2)c1)N1CCN(c2ncc(C(F)(F)F)cn2)CC1 [Compound 70]
< 100 | O=C(c1cccc(Oc2n[nH]c(=O)c(C(F)(F)F)c2N2CC3(CCC3)C2)c1)N1CCN(c2cnc(C(F)F)cn2)CC1 [Compound 189]
< 100 | C[C@@H]1CN(C(=O)c2cc(Oc3n[nH]c(=O)c(C(F)(F)F)c3N3CC4(C3)CC(F)(F)C4)ccn2)CCN1c1ncc(C(F)(F)F)cn1 [Compound 318]
100 to 1000 | C[C@@H]1CN(c2n[nH]c(=O)c3c(F)cccc23)C[C@@H](CC(=O)N2CCN(c3ncc(C(F)(F)F)cn3)CC2)O1 (stereo in doubt) [Compound 96]
< 100 | CC(C)(O)c1cnc(N2CCN(C(=O)CC3CN(c4cc(C(F)(F)F)c(=O)[nH]n4)c4cc(F)ccc4O3)CC2)nc1 (single isomer, unassigned) [Compound 348]
< 100 | CC(=O)N1CCN(C(=O)c2cccc(Oc3n[nH]c(=O)c(C(F)(F)F)c3N3CC4(CCC4)C3)c2)CC1 [Compound 160]
100 to 1000 | O=C(CC1CN(c2n[nH]c(=O)c3cc(F)ccc23)CCO1)N1CCN(c2ncc(C(F)(F)F)cn2)CC1 (single isomer, unassigned) [Compound 49]
100 to 1000 | Cc1c(Oc2cc(Cl)cc(C(=O)N3CCN(c4ncc(C(F)(F)F)cn4)CC3)c2)n[nH]c(=O)c1C(F)(F)F [Compound 22]
< 100 | CC(C)(O)c1cnc(N2CCN(C(=O)CC3CN(c4cc(C(F)(F)F)c(=O)[nH]n4)c4cc(F)ccc4O3)CC2)nc1 (single isomer, unassigned) [Compound 351]
< 100 | CS(=O)(=O)Cc1ccc2c(c1)N(c1cc(C(F)(F)F)c(=O)[nH]n1)CC(CC(=O)N1CCN(c3ncc(C(F)(F)F)cn3)CC1)O2 (single isomer, unassigned) [Compound 271]
100 to 1000 | O=C(CC1CN(c2n[nH]c(=O)c3ccccc23)CCO1)N1CCN(c2ncc(C(F)(F)F)cn2)CC1 (single isomer, unassigned) [Compound 107]
< 100 | C[C@@H]1CN(C(=O)CC2CN(c3cc(C(F)(F)F)c(=O)[nH]n3)c3cc(C#N)ccc3O2)CCN1c1cnc(C(F)(F)F)cn1 (single isomer, unassigned) [Compound 153]
< 100 | O=C(CC1CN(c2cc(C(F)(F)F)c(=O)[nH]n2)c2cc(N3CCOCC3=O)ccc2O1)N1CCN(c2ncc(C(F)(F)F)cn2)CC1 (single isomer, unassigned) [Compound 282]
100 to 1000 | C#Cc1c(C)c(N2CCOC(CC(=O)N3CCN(c4ncc(C(F)(F)F)cn4)CC3)C2)n[nH]c1=O (single isomer, unassigned) [Compound 113]
< 100 | Cc1c(N2CCOC(CC(=O)N3CCN(c4ncc(C(F)(F)F)cn4)CC3)C2)n[nH]c(=O)c1C(F)(F)F (single isomer, unassigned) [Compound 38]
< 100 | C[C@@H]1CN(C(=O)c2cccc(Oc3n[nH]c(=O)c(C(F)(F)F)c3N3CC4(C3)CC(F)(F)C4)c2)CCN1c1ncc(C#N)cn1 [Compound 341]
< 100 | Cc1ccc(C(=O)N2CCN(c3ncc(C(F)(F)F)cn3)CC2)cc1Oc1n[nH]c(=O)c(C(F)(F)F)c1C [Compound 19]
< 100 | C[C@@H]1CN(C(=O)c2cncc(Oc3n[nH]c(=O)c(C(F)(F)F)c3N3CC4(C3)CC(F)(F)C4)c2)CCN1c1ncc(C(F)(F)F)cn1 [Compound 314]
< 100 | O=C(CC1CN(c2n[nH]c(=O)c3ncccc23)CCO1)N1CCN(c2ncc(C(F)(F)F)cn2)CC1 (single isomer, unassigned) [Compound 125]
100 to 1000 | O=C(c1cccc(Oc2n[nH]c(=O)c(C(F)(F)F)c2N2CC3(CCC3)C2)c1)N1CCC(F)(F)CC1 [Compound 159]
< 100 | O=C(c1cccc(Oc2n[nH]c(=O)c(C(F)(F)F)c2N2CC3(CCC3)C2)c1)N1CCN(c2ccc(Cl)cn2)CC1 [Compound 182]
< 100 | N#Cc1cnc(N2CCN(C(=O)c3cc(Oc4n[nH]c(=O)c(C(F)(F)F)c4N4CC5(CCC5)C4)ccn3)CC2)nc1 [Compound 273]
< 100 | C#Cc1c(C)c(N2CCOC(CC(=O)N3CCN(c4ncc(C(F)(F)F)cn4)CC3)C2)n[nH]c1=O (single isomer, unassigned) [Compound 89]
100 to 1000 | O=C(CC1CN(c2n[nH]c(=O)c3ccc(Cl)cc23)CCO1)N1CCN(c2ncc(C(F)(F)F)cn2)CC1 (single isomer, unassigned) [Compound 122]
